# Test: recombinant barcode read abundance after kanamycin selection (control-corrected) (log10(CPM+1)); higher = more efficient recombination; sequences stand for … in AGTGCAGAGAAAATCGGCCAGTTTTCTCTGCCTGCAGTCCGCATGCCGT…AGATTTATGCAGCGGACTGCCTTTCTCCCAAAGTGATAAACCGGACAGTATCATGGACCGGTTTTCCCGGTAATCCGTATTTGCAAGGTTGGTTTCACT; site = the 11-nt target
# Method in brief: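 This pooled E. coli screen matched targets with IS621 bridge RNA target-binding loops. Plating was done in duplicate on chloramphenicol/ampicillin LB agar as a control and on chloramphenicol/ampicillin/kanamycin plus 0.1 mM IPTG. Recombination efficiency reflects barcode counts at recombinant junctions as counts per million, averaged and control-corrected. The figures are log10(CPM+1).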
# 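Note: IS621 recombinase and bridge RNA in Escherichia coli cells.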
row,Sequence,recombinant barcode read abundance (log10)
1,CCAGTTACTTGGGTTCTAACCTGTTGCCT (site CCAGTTACTAG),0.351
2,CCATACCCTTGGGTTCTAACCTGTTGCTA (site ATCATAGCTGC),0.019
3,CCATACCCTTGGGTTCTAACCTGTTGCTA (site CCATACCCTTA),0.884
4,CCATAGTCTTGGGTTCTAACCTGTTGCTT (site CCATAGTCTAA),0.732
5,CCATAGTCTTGGGTTCTAACCTGTTGCTT (site GCACAGTCTAA),0.052
6,CCATCCTCTTGGGTTCTAACCTGTTGCTT (site CAATCCTCTAA),0.04
7,CCATCCTCTTGGGTTCTAACCTGTTGCTT (site CCATCCTCTAA),0.0749
8,CCATGGTCTTGGGTTCTAACCTGTTGCTT (site CCATACTCTAA),0.01
9,CCATGGTCTTGGGTTCTAACCTGTTGCTT (site CCATGGTCTAA),1.78
10,CCGAATCCTTGGGTTCTAACCTGTTGCCT (site CCGAATCCTAG),0.355
11,CCGAATCCTTGGGTTCTAACCTGTTGCCT (site CCGACTCCTAG),0.361
12,CCGAATCCTTGGGTTCTAACCTGTTGCCT (site CCGAGTCCTAG),0.122
13,CCGAATCCTTGGGTTCTAACCTGTTGCCT (site CCGATTCCTAG),0.199
14,CCGACTTCTTGGGTTCTAACCTGTTGCCT (site CAGACTTCTAG),0.219
15,CCGACTTCTTGGGTTCTAACCTGTTGCCT (site CCGACTTCTAG),0.164
16,CCGACTTCTTGGGTTCTAACCTGTTGCCT (site CGGACTTCTAG),0.244
17,CCGACTTCTTGGGTTCTAACCTGTTGCCT (site CTGACTTCTAG),0.129
18,CCGAGAGCTTGGGTTCTAACCTGTTGCCT (site CAGAGAGCTAG),0.0908
19,CCGAGAGCTTGGGTTCTAACCTGTTGCCT (site CCGAGAGCTAG),0.454
20,CCGAGAGCTTGGGTTCTAACCTGTTGCCT (site CGGAGAGCTAG),0.0785

row,Sequence,recombinant barcode read abundance (log10)
1,CCGAGAGCTTGGGTTCTAACCTGTTGCCT (site CTGAGAGCTAG),0.0419
2,CCGCATGCTTGGGTTCTAACCTGTTGCCT (site CCGAATGCTAG),0.0372
3,CCGCATGCTTGGGTTCTAACCTGTTGCCT (site CCGCATGCTAG),0.234
4,CCGCATGCTTGGGTTCTAACCTGTTGCCT (site CCGGATGCTAG),0.0172
5,CCGCATGCTTGGGTTCTAACCTGTTGCCT (site CCGTATGCTAG),0.0765
6,CCGCCTCCTTGGGTTCTAACCTGTTGCAT (site CCGCCTCCTAT),0.0412
7,CCGCCTCCTTGGGTTCTAACCTGTTGCAT (site CGTCCTCCTAT),0.26
8,CCGCGGACTTGGGTTCTAACCTGTTGCTA (site CCGCGGACTTA),0.989
9,CCGCGGACTTGGGTTCTAACCTGTTGCTA (site TAAAACCCTAT),0.0107
10,CCGCGGACTTGGGTTCTAACCTGTTGCTT (site CCGCAGACTAA),0.106
11,CCGCGGACTTGGGTTCTAACCTGTTGCTT (site CCGCGGACTAA),0.578
12,CCGGCCACTTGGGTTCTAACCTGTTGCCT (site CAGGCCACTAG),0.359
13,CCGGCCACTTGGGTTCTAACCTGTTGCCT (site CCGGCCACTAG),1.82
14,CCGGCCACTTGGGTTCTAACCTGTTGCCT (site CGGGCCACTAG),0.164
15,CCGGCCACTTGGGTTCTAACCTGTTGCCT (site CTGGCCACTAG),0.155
16,CCGGGATCTTGGGTTCTAACCTGTTGCCT (site ACGGGATCTAG),0.323
17,CCGGGATCTTGGGTTCTAACCTGTTGCCT (site CCGGGATCTAG),1.22
18,CCGGGATCTTGGGTTCTAACCTGTTGCCT (site GCGGGATCTAG),0.161
19,CCGGGATCTTGGGTTCTAACCTGTTGCCT (site TCGGGATCTAG),0.231
20,CCGGGTACTTGGGTTCTAACCTGTTGCCG (site AGCAACCCTTT),0.0127

row,Sequence,recombinant barcode read abundance (log10)
1,CCGGGTACTTGGGTTCTAACCTGTTGCCG (site CCGGGTACTCG),1.66
2,CCGGTGACTTGGGTTCTAACCTGTTGCCT (site ACGGTGACTAG),0.0889
3,CCGGTGACTTGGGTTCTAACCTGTTGCCT (site CCGGTGACTAG),0.743
4,CCGGTGACTTGGGTTCTAACCTGTTGCCT (site GCGGTGACTAG),0.146
5,CCGGTGACTTGGGTTCTAACCTGTTGCCT (site TCGGTGACTAG),0.0596
6,CCGGTTGCTTGGGTTCTAACCTGTTGCCT (site CCGGATTCTAG),0.0357
7,CCGGTTGCTTGGGTTCTAACCTGTTGCCT (site CCGGTTGCTAG),2.76
8,CCGTCTACTTGGGTTCTAACCTGTTGCTT (site CCGTCTACTAA),0.107
9,CCGTCTACTTGGGTTCTAACCTGTTGCTT (site CCGTCTACTCA),0.457
10,CCGTCTACTTGGGTTCTAACCTGTTGCTT (site CCGTCTACTGA),0.0444
11,CCGTCTACTTGGGTTCTAACCTGTTGCTT (site CCGTCTACTTA),0.201
12,CCGTGAACTTGGGTTCTAACCTGTTGCCT (site CAGTGAACTAG),0.0153
13,CCGTGAACTTGGGTTCTAACCTGTTGCCT (site CCGTGAACTAG),0.275
14,CCGTGAACTTGGGTTCTAACCTGTTGCCT (site CGGTGAACTAG),0.0382
15,CCGTGAACTTGGGTTCTAACCTGTTGCCT (site CTGTGAACTAG),0.163
16,CCGTGGACTTGGGTTCTAACCTGTTGCCA (site CAGGGGACTTG),0.111
17,CCGTGGACTTGGGTTCTAACCTGTTGCCA (site CCGTGGACTTG),0.42
18,CCTAAACCTTGGGTTCTAACCTGTTGCGT (site CCTAAACCTAC),1.63
19,CCTAAACCTTGGGTTCTAACCTGTTGCGT (site CCTAACCCTAC),0.0278

# Reference: the supplement of paper PMC11208160
